Among the data in patent US20170253607A1, “LONG-ACTING HIV PROTEASE INHIBITOR” (Shionogi & Co., Ltd., priority 2014, published 2017) are IC50 values, retold here.

The test concerns the target HIV-1 PR (Human immunodeficiency virus type 1 group M subtype B, UniProt P04585). In words: HIV-protease inhibitory activity assay (FRET peptide substrate). To be noted: Test Example 1. In kind it is biochemical. Put shortly:
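Fluorescence recovery at ex 485/em 535 nm reports cleavage of a quenched FRET peptide (2 μmol/L final) by 0.83 ng enzyme over 60 minutes at room temperature. Buffer was NaAc pH 4.8 with NaCl, EDTA, DTT and Tween 20. IC50 values came from four-parameter logistic regression of % inhibition.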
`COc1ccc(S(=O)(=O)N(CC(C)C)CC(O)C(Cc2ccc(NCc3ccc(-c4sc5c(c4C(=O)O)CC(C)(C)CC5)cc3F)cc2)NC(=O)OC2COC3(C)OCCC23)cc1` (stereo not shown) [Compound I-282] gave an IC50 of 4.04 nM.
Compound `COc1ccc(S(=O)(=O)N(CC(C)C)CC(O)C(Cc2ccc(NCc3cccc(-c4sc5c(c4C(=O)O)CC(C)(C)CC5)n3)cc2)NC(=O)OC2COC3(C)OCCC23)cc1` (stereo not shown) [Compound I-283] yielded a concentration for half-maximal inhibition (IC50) of 2.28 nM.
`COc1ccc(S(=O)(=O)N(CC(C)C)CC(O)C(Cc2ccc(NCc3cc(-c4sc5c(c4C(=O)O)CC(C)(C)CC5)co3)cc2)NC(=O)OC2COC3(C)OCCC23)cc1` (stereo not shown) [Compound I-284] yielded an IC50 of 2.98 nM.
Then `COc1ccc(S(=O)(=O)N(CC(C)C)CC(O)C(Cc2ccc(NCc3ccc(-c4ccc(-c5sc6c(c5C(=O)O)CC(C)(C)CC6)cc4)cc3)cc2)NC(=O)OC2COC3(C)OCCC23)cc1` (stereo not shown) [Compound I-285], with 7.76 nM.
The value for `COc1ccc(S(=O)(=O)N(CC(C)C)CC(O)C(Cc2ccc(NCc3cnc4ccc(-c5sc6c(c5C(=O)O)CC(C)(C)CC6)cn34)cc2)NC(=O)OC2COC3(C)OCCC23)cc1` (stereo not shown) [Compound I-286] was 2.06 nM; that for `COc1ccc(S(=O)(=O)N(CC(C)C)CC(O)C(Cc2ccc(NCc3ccc(-c4sc5c(c4C(=O)O)CC(C)(C)CC5)o3)cc2)NC(=O)OC2COC3(C)OCCC23)cc1` (stereo not shown) [Compound I-288] was 2.19 nM.
The compound `COc1ccc(S(=O)(=O)N(CC(C)C)CC(O)C(Cc2ccc(NCc3nc(-c4sc5c(c4C(=O)O)CC(C)(C)CC5)cs3)cc2)NC(=O)OC2COC3(C)OCCC23)cc1` (stereo not shown) [Compound I-289] yielded an IC50 of 2.4 nM.
Consider `COc1ccc(S(=O)(=O)N(CC(C)C)CC(O)C(Cc2ccc(NCc3ccc(-c4sc5c(c4C(=O)O)CC(C)(C)CC5)cn3)cc2)NC(=O)OC2COC3(C)OCCC23)cc1` (stereo not shown) [Compound I-290], for which half-maximal inhibition (IC50) was put at 2.08 nM.
On to `COc1ccc(S(=O)(=O)N(CC(C)C)CC(O)C(Cc2ccc(NCc3ccc(-c4sc5c(c4C(=O)O)CC(C)(C)CC5)c(F)c3)cc2)NC(=O)OC2COC3(C)OCCC23)cc1` (stereo not shown) [Compound I-291], for which 3.54 nM corresponded to half-maximal inhibition (IC50).
`COc1ccc(S(=O)(=O)N(CC(C)C)CC(O)C(Cc2ccc(NCc3ccc(OC)c(-c4sc5c(c4C(=O)O)CC(C)(C)CC5)c3)cc2)NC(=O)OC2COC3(C)OCCC23)cc1` (stereo not shown) [Compound I-293] had an IC50 of 1.9 nM.
The value for `COc1ccc(S(=O)(=O)N(CC(C)C)CC(O)C(Cc2ccc(NCc3cc(-c4sc5c(c4C(=O)O)CC(C)(C)CC5)ccc3OC(F)(F)F)cc2)NC(=O)OC2COC3(C)OCCC23)cc1` (stereo not shown) [Compound I-294] was 3.92 nM.
`COc1ccc(S(=O)(=O)N(CC(C)C)CC(O)C(Cc2ccc(NCc3csc(-c4sc5c(c4C(=O)O)CC(C)(C)CC5)n3)cc2)NC(=O)OC2COC3(C)OCCC23)cc1` (stereo not shown) [Compound I-295] yielded a half-inhibitory concentration (IC50) of 2.19 nM.
Then `COc1ccc(S(=O)(=O)N(CC(C)C)CC(O)C(Cc2ccc(NCc3cc(F)cc(-c4sc5c(c4C(=O)O)CC(C)(C)CC5)c3)cc2)NC(=O)OC2COC3(C)OCCC23)cc1` (stereo not shown) [Compound I-296], with 1.91 nM; and `COc1ccc(S(=O)(=O)N(CC(C)C)CC(O)C(Cc2ccc(N(Cc3ccccc3)Cc3ccccc3-c3sc4c(c3C(=O)O)CC(C)(C)CC4)cc2)NC(=O)OC2COC3(C)OCCC23)cc1` (stereo not shown) [Compound I-299], with 16.5 nM.
Compound `COc1ccc(S(=O)(=O)N(CC(C)C)CC(O)C(Cc2ccc(N3CCc4c(-c5sc6c(c5C(=O)O)CC(C)(C)CC6)cccc43)cc2)NC(=O)OC2COC3(C)OCCC23)cc1` (stereo not shown) [Compound I-300] had an IC50 of 4.78 nM. This IC50 is about 3.5-fold lower than that of the compound before.
In the case of `COc1ccc(S(=O)(=O)N(CC(C)C)CC(O)C(Cc2ccc(OCc3ccccc3-c3ccc(-n4nc5c(c4C(=O)O)CC(C)(C)CC5)cc3)cc2)NC(=O)OC2COC3(C)OCCC23)cc1` (stereo not shown) [Compound I-301], the IC50 came out at 3.14 nM. Compared with the last compound, the IC50 is about 1.5-fold lower.
`COc1ccc(S(=O)(=O)N(CC(C)C)CC(O)C(Cc2ccc(OCc3ccccc3-c3ccc(-n4nc(C(=O)O)c5c4CCC(C)(C)C5)cc3)cc2)NC(=O)OC2COC3(C)OCCC23)cc1` (stereo not shown) [Compound I-302] came in with an IC50 of 2.28 nM. The IC50 values of the last two compounds are within 1.5-fold of each other.
Consider `COc1ccc(S(=O)(=O)N(CC(C)C)CC(O)C(Cc2ccc(OCc3ccnc(C(=O)O)c3)cc2)NC(=O)OC2COC3(C)OCCC23)cc1` (stereo not shown) [Compound I-306], for which the concentration for half-maximal inhibition (IC50) is 1.89 nM.
Then `COc1ccc(S(=O)(=O)N(CC(C)C)CC(O)C(Cc2ccc(OCc3cc(Cc4ccc(F)cc4)cnc3C(=O)O)cc2)NC(=O)OC2COC3(C)OCCC23)cc1` (stereo not shown) [Compound I-308], with 1.91 nM; and `COc1ccc(S(=O)(=O)N(CC(C)C)CC(O)C(Cc2ccc(OCCn3ncc(C(=O)O)c3OC(C)C)cc2)NC(=O)OC2COC3(C)OCCC23)cc1` (stereo not shown) [Compound I-309], with 2 nM.
The value for `COc1ccc(S(=O)(=O)N(CC(C)C)CC(O)C(Cc2ccc(OC3CCC(C(C)(C)C(=O)O)CC3)cc2)NC(=O)OC2COC3(C)OCCC23)cc1` (stereo not shown) [Compound I-310] was 1.96 nM; that for `COc1ccc(S(=O)(=O)N(CC(C)C)CC(O)C(Cc2ccc(OCc3ccccc3OCC(=O)O)cc2)NC(=O)OC2COC3(C)OCCC23)cc1` (stereo not shown) [Compound I-311] was 1.88 nM.
In the case of `COc1ccc(S(=O)(=O)N(CC(C)C)CC(O)C(Cc2ccc(NCc3ccc4scc(C(=O)O)c4c3)cc2)NC(=O)OC2COC3(C)OCCC23)cc1` (stereo not shown) [Compound I-314], the half-inhibitory concentration (IC50) was determined as 1.93 nM.
The value for `COc1ccc(S(=O)(=O)N(CC(C)C)CC(O)C(Cc2ccc(NCc3ccccc3OCC(=O)O)cc2)NC(=O)OC2COC3(C)OCCC23)cc1` (stereo not shown) [Compound I-315] was 1.98 nM.
`COc1ccc(S(=O)(=O)N(CC(C)C)CC(O)C(Cc2ccc(NCc3ccc(C(=O)O)cc3)cc2)NC(=O)OC2COC3(C)OCCC23)cc1` (stereo not shown) [Compound I-316] gave an IC50 of 1.85 nM.
As for `COc1ccc(S(=O)(=O)N(CC(C)C)CC(O)C(Cc2ccc(NCc3cc(C(=O)O)c(C)o3)cc2)NC(=O)OC2COC3(C)OCCC23)cc1` (stereo not shown) [Compound I-317], the IC50 came out at 1.86 nM. This IC50 and that of the compound before are within 1.5-fold of each other.
For `COc1ccc(S(=O)(=O)N(CC(C)C)CC(O)C(Cc2ccc(NCc3c(C(=O)O)[nH]c4ccc(Cl)cc34)cc2)NC(=O)OC2COC3(C)OCCC23)cc1` (stereo not shown) [Compound I-319], inhibition was half-maximal at 2.09 nM (IC50). This IC50 and that of the compound before are within 1.5-fold of each other.
As for `COc1ccc(S(=O)(=O)N(CC(C)C)CC(O)C(Cc2ccc(NCc3cnn4ccc(C(=O)O)nc34)cc2)NC(=O)OC2COC3(C)OCCC23)cc1` (stereo not shown) [Compound I-320], the IC50 was determined as 1.95 nM. This IC50 and that of the compound before are within 1.5-fold of each other.
The compound `COc1ccc(S(=O)(=O)N(CC(C)C)CC(O)C(Cc2ccc(NCc3ccc(OCC(=O)O)cc3)cc2)NC(=O)OC2COC3(C)OCCC23)cc1` (stereo not shown) [Compound I-321] came in with a 50% inhibitory concentration (IC50) of 1.9 nM.
In turn, `COc1ccc(S(=O)(=O)N(CC(C)C)CC(O)C(Cc2ccc(NCc3ccc(-c4sc5c(c4C(=O)O)CC(C)(C)CC5)c4ccccc34)cc2)NC(=O)OC2COC3(C)OCCC23)cc1` (stereo not shown) [Compound I-322] registered a half-maximal inhibitory concentration (IC50) of 10.5 nM.
Then `COc1ccc(S(=O)(=O)N(CC(C)C)CC(O)C(Cc2ccc(NCc3ncn4cc(-c5sc6c(c5C(=O)O)CC(C)(C)CC6)ccc34)cc2)NC(=O)OC2COC3(C)OCCC23)cc1` (stereo not shown) [Compound I-323], with 2.41 nM; and `COc1ccc(S(=O)(=O)N(CC(C)C)CC(O)C(Cc2ccc(OC3CC4CCC(C3)N4c3ccc(C#N)cc3-c3sc4c(c3C(=O)O)CC(C)(C)CC4)cc2)NC(=O)OC2COC3(C)OCCC23)cc1` (stereo not shown) [Compound I-324], with 19.6 nM; and `COc1ccc(S(=O)(=O)N(CC(C)C)CC(O)C(Cc2ccc(OCC3CCN(c4ccc(C#N)cc4-c4sc5c(c4C(=O)O)CC(C)(C)CC5)CC3)cc2)NC(=O)OC2COC3(C)OCCC23)cc1` (stereo not shown) [Compound I-325], with 31.7 nM.
The value for `COc1ccc(S(=O)(=O)N(CC(C)C)CC(O)C(Cc2ccc(OCC3CCCN3c3ccc(C#N)cc3-c3sc4c(c3C(=O)O)CC(C)(C)CC4)cc2)NC(=O)OC2COC3(C)OCCC23)cc1` (stereo not shown) [Compound I-326] was 9.19 nM; that for `COc1ccc(S(=O)(=O)N(CC(C)C)CC(O)C(Cc2ccc(OCC3CCCN(c4ccc(C#N)cc4-c4sc5c(c4C(=O)O)CC(C)(C)CC5)C3)cc2)NC(=O)OC2COC3(C)OCCC23)cc1` (stereo not shown) [Compound I-327] was 10.4 nM.
Then `COc1ccc(S(=O)(=O)N(CC(C)C)CC(O)C(Cc2ccc(OCC3CCCN(c4ccc(C#N)cc4-c4sc5c(c4C(=O)O)CC(C)(C)CC5)C3)cc2)NC(=O)OC2COC3(C)OCCC23)cc1` (stereo not shown) [Compound I-328], with 12.8 nM; and `COc1ccc(S(=O)(=O)N(CC(C)C)CC(O)C(Cc2ccc(OCC3CN(c4ccc(C#N)cc4-c4sc5c(c4C(=O)O)CC(C)(C)CC5)C3)cc2)NC(=O)OC2COC3(C)OCCC23)cc1` (stereo not shown) [Compound I-329], with 7.67 nM; and `COc1ccc(S(=O)(=O)N(CC(C)C)CC(O)C(Cc2ccc(OCC3CCC(Nc4ccc(C#N)cc4-c4sc5c(c4C(=O)O)CC(C)(C)CC5)CC3)cc2)NC(=O)OC2COC3(C)OCCC23)cc1` (stereo not shown) [Compound I-330], with 40.6 nM.
`COc1ccc(S(=O)(=O)N(CC(C)C)CC(O)C(Cc2ccc(OC3CCCN(c4ccc(C#N)cc4-c4sc5c(c4C(=O)O)CC(C)(C)CC5)C3)cc2)NC(=O)OC2COC3(C)OCCC23)cc1` (stereo not shown) [Compound I-331] gave an IC50 of 12.3 nM.
As to `COc1ccc(S(=O)(=O)N(CC(C)C)CC(O)C(Cc2ccc(OC3CCCN(c4ccc(C#N)cc4-c4sc5c(c4C(=O)O)CC(C)(C)CC5)C3)cc2)NC(=O)OC2COC3(C)OCCC23)cc1` (stereo not shown) [Compound I-332], the half-maximal inhibitory concentration (IC50) amounted to 7.39 nM.
As to `COc1ccc(S(=O)(=O)N(CC(C)C)CC(O)C(Cc2ccc(OCC3CCCN3c3ccc(C#N)cc3-c3sc4c(c3C(=O)O)CC(C)(C)CC4)cc2)NC(=O)OC2COC3(C)OCCC23)cc1` (stereo not shown) [Compound I-333], the IC50 stood at 11 nM.
For `COc1ccc(S(=O)(=O)N(CC(C)C)CC(O)C(Cc2ccc(NCCCc3sc4c(c3C(=O)O)CC(C)(C)CC4)cc2)NC(=O)OC2COC3(C)OCCC23)cc1` (stereo not shown) [Compound I-335], half-maximal inhibition (IC50) was put at 1.81 nM.
In the case of `COc1ccc(S(=O)(=O)N(CC(C)C)CC(O)C(Cc2ccc(N(C)CCCc3sc4c(c3C(=O)O)CC(C)(C)CC4)cc2)NC(=O)OC2COC3(C)OCCC23)cc1` (stereo not shown) [Compound I-336], the IC50 came out at 2.13 nM. The IC50 values of the last two compounds are within 1.5-fold of each other.
